In experiment [1] the test system is gastric acid secretion induced by pentagastrin. Kind of experiment: Antisecretive activity in anaesthetised rats, stimulant pentagastrin. In kind it is in vivo. To be noted: Rattus norvegicus, iv; pentagastrin 30 mcg/kg/h; I.V. bolus; anaesthetised rats; read-out: Antagonistic activity (ED50 mg/kg IV) towards gastric acid secretion induced by pentagastrin. The protocol: The antisecretive activity was determined in rats with the use of male animals weighing about 200g, anaesthetised with urethane. Gastric secretion was stimulated with pentagastrin. K.S. Lai's method (Gut 5, (1964), 327-341) was used, with slight modifications.
After tracheotomy, oesophageal and duodenal cannulae were inserted. A tepid solution (37°C) of 0.25 mM NaOH was perfused through the stomach by means of a peristaltic pump at a constant flow rate of 1 ml/minute. After stabilisation for 20 minutes, the dose of the stimulant, indicated in Table 3, dissolved in a physiological solution, was perfused for 120 minutes at a rate of 0.95 ml/hour. After 60 minutes of perfusion (basic stimulation), the products under test were administered intravenously (I.V.) in boli whilst the perfusion of the stimulant continued for a further 60 minutes. The acid secretion was recorded continuously as a function of time.
The activity of the product was evaluated as the reduction in the secreted acidity after administration of the product as a percentage of the basic acidity measured during the first 60 minutes of collection during which only pentagastrin was present.
The antagonistic compounds tested were administered in different doses so that an ID50 (that is the dose (in mg/Kg I.V.) which can inhibit the effect of the pentagastrin by 50% could be calculated.
The results thus obtained are given in the following table in which the activities of the compounds are expressed as ID50s under the stimulus of pentagastrin at 30 mcg/Kg/h.

The target of experiment [2] is T1, gastrin receptor sites on the parietal cell membranes of the fundic mucosa of a guinea-pig stomach (Cavia porcellus, UniProt H0VZC5).
T1 sequence (H0VZC5 1-426): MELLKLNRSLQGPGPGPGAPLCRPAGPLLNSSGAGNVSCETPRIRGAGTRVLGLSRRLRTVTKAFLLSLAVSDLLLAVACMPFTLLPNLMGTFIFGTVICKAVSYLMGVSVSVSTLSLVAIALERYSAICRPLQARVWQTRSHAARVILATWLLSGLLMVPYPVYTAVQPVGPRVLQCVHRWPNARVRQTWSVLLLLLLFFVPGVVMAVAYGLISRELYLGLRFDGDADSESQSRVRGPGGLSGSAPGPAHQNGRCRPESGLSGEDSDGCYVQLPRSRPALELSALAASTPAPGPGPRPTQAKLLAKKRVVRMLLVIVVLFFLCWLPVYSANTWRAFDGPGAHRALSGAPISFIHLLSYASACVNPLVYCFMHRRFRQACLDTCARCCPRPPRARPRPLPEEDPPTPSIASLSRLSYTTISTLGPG
Description: Inhibition of binding of tritiated pentagastrin to isolated guinea-pig gastric glands. The arrangement: from tissue; host or cells: isolated gastric glands from guinea-pig fundic mucosa (collagenase digestion). How it is done:
The capacity of some of the compounds which are the subject of the invention to inhibit the binding of pentagastrin-[beta-alanyl-3-3H(N)] to the gastrin receptor sites on the parietal cell membranes of the fundic mucosa of a guinea-pig stomach was evaluated by comparison with the displacement of pentagastrin induced by proglumide, which is a reference antigastrin compound, by lorglumide, which is a powerful CCK antagonist mentioned above, and by the compound D5 which is the optical antipode (the L-series enantiomer) of the compound D1.
Male guinea pigs weighing about 400-500g were used. After the guinea pig had been killed, its stomach was removed and placed in oxygenated SPB buffer at 37°C (SPB = saline phosphate buffer: 149.6 mM NaCl, 3 mM K₂HPO₄, 0.64 mM NaH₂PO₄, pH 7.3).
After washing in the buffer, the stomach was placed on a petri dish and the antral part discarded.
The mucosa of the remaining part was removed from the underlying muscular part and was then chopped and transferred to a flask containing a collagenase digestion solution, 0.1% BSA and 0.2% glucose. The solution was incubated at 37°C for 10 minutes under agitation and a stream of 0₂.
During the incubation period, the tissue was passed several times through a series of pipettes with decreasing diameters in order to facilitate its digestion. At the end of the period, the tissue was removed and centrifuged at 1000 rpm. The supernatant liquid resulting from the centrifuging was discarded and the pellet washed several times with a washing buffer containing EPTA to remove the collagenase.
The glands were then isolated from the undigested tissue by conventional techniques, suspended in Hepes buffer for binding and incubated together with a radioactive tracer and the compounds under test for 30 minutes at 25°C.
After the supernatant liquid had been removed by centrifuging, the radioactivity associated with the pellet was determined with a liquid scintillator. The specific binding was determined as the difference between the binding in the absence and in the presence of 10⁻⁶ M pentagastrin.
The results obtained are shown in Table 1 which gives the IC50, that is, the concentration (in moles/litre) of the antagonist which can displace 50% of the pentagastrin tritiate from the receptor.

The target in experiment [3] is T2, central gastrin receptors (Mus musculus, UniProt P56481).
T2 sequence (P56481 1-453): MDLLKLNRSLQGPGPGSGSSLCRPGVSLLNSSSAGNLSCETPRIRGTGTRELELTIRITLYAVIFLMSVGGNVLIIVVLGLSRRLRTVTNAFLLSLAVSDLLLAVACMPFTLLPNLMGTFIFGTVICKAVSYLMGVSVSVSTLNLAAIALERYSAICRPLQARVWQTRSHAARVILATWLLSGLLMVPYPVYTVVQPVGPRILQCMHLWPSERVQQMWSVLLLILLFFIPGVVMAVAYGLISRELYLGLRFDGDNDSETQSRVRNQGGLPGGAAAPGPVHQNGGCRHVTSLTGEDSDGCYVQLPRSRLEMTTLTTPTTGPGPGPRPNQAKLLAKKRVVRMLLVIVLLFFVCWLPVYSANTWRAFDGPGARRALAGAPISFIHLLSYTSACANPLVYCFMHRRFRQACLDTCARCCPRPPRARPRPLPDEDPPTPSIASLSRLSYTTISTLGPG
Kind of experiment: Inhibition of binding of tritiated pentagastrin to mouse cerebral cortex membranes. To be noted: displacement of pentagastrin tritiate; 40 minutes at 37°C. Further details: Mouse cortex tissue was homogenised cold in 20 volumes of tris buffer (pH 7.7); from tissue; host or cells: mouse cerebral cortex membranes; species or system mice. How it is done:
Cerebral cortex membranes were therefore used and pentagastrin tritiate was again used as the ligand.
Mouse cortex tissue was homogenised cold in 20 volumes of tris buffer (pH 7.7). After washing and centrifuging, the final pellet was resuspended in 20 volumes of binding buffer containing, inter alia, TRIS, BSA and bacitracin. 0.4 ml of the membrane thus obtained were then incubated with a radioactive tracer and with the compounds under test for 40 minutes at 37°C.
After the supernatant liquid had been removed by centrifuging, the radioactivity associated with the pellet was determined, again with a liquid scintillator. The specific binding is the difference between the binding in the absence and in the presence of 10⁻⁶M pentagastrin.
Again, this gives the IC50s of the compounds tested with the meaning as given above.

[4] abbreviates: displacement of 50% of pentagastrin tritiate, 30 minutes at 25°C, read-out: IC50.

Like-named read-outs stand apart in the source and are kept apart here.

By IC50 is commonly meant the concentration that inhibits the measured activity by half. Consider `CC(C)CCNC(=O)C(CCC(=O)O)NC(=O)c1cccc(Cl)c1` (racemic) [A2], for which the ED50 in experiment [1] was 48 mg/kg. The 50% inhibitory concentration (IC50) in experiment [2] (setting [4]) was determined as 3100 nM.
With `CCCN(CCC)C(=O)C(CCC(=O)O)NC(=O)c1ccccc1` (centres unmarked) [Proglumide, reference compound], the ED50 in experiment [1] came to 500 mg/kg. The compound further yielded an IC50 in experiment [3] of 220000 nM.
As for `CC(C)(C)CCNC(=O)[C@H](CCC(=O)O)NC(=O)c1cccc(Cl)c1` [D5, reference compound], in experiment [1], the ED50 turned out to be 89 mg/kg. In addition, the “times less active than the corresponding compound D1” value in experiment [2] (L-series vs D-series enantiomer, gastric glands) is on record as “about 10 times”. In addition, the IC50 in experiment [2] (setting [4]) turned out to be 520 nM; in experiment [3], 660 nM.
With `CCCCCCNC(=O)C(CCC(=O)O)NC(=O)c1cccc(C)c1` (racemic) [A18], the ED50 in experiment [1] came to 58 mg/kg. In addition, the IC50 in experiment [2] (setting [4]) turned out to be 5800 nM.
For `CC(C)(C)CCCNC(=O)C(CCC(=O)O)NC(=O)c1cccc(Cl)c1` (racemic) [A9], the ED50 in experiment [1] is 34 mg/kg. In addition, the IC50 in experiment [2] (setting [4]) was 200 nM; in experiment [3] it was 220 nM.
`CC(C)CCCNC(=O)C(CCC(=O)O)NC(=O)c1cccc(Cl)c1` (racemic) [A4]: in experiment [1], the ED50 amounted to 61 mg/kg. Moreover, in experiment [2] (setting [4]), the IC50 worked out at 3300 nM.
As to `CCC(CC)(CC)CCNC(=O)C(CCC(=O)O)NC(=O)c1cccc(Cl)c1` (racemic) [A14], the ED50 in experiment [1] turned out to be 39 mg/kg. Besides, the IC50 amounted to 78 nM in experiment [2] (setting [4]) and 93 nM in experiment [3].
For `CCC(C)(C)CCNC(=O)C(CCC(=O)O)NC(=O)c1cccc(Cl)c1` (racemic) [A10] the same measures were 37 mg/kg, 230 nM and 180 nM.
On to `CC(C)(C)CCNC(=O)C(CCC(=O)O)NC(=O)c1cc(Cl)cc(Cl)c1` (racemic) [A21], for which the ED50 in experiment [1] amounted to 34 mg/kg. For the same compound, the IC50 in experiment [2] amounted to 69 nM; in experiment [3], 80 nM.
Turning to `Cc1cccc(C(=O)NC(CCC(=O)O)C(=O)NC2CCCCC2)c1` (racemic) [A19], the ED50 in experiment [1] turned out to be 98 mg/kg. Moreover, the half-maximal inhibitory concentration (IC50) in experiment [2] (setting [4]) was determined as 41000 nM.
Taken in the same sequence, the figures for `O=C(O)CC(NC(=O)c1cccc(Cl)c1)C(=O)NC1CCCCCC1` (racemic) [A25] were 74 mg/kg and 7300 nM.
For the compound `CCC(C)(CC)CCNC(=O)C(CCC(=O)O)NC(=O)c1cc(Cl)ccc1[N+](=O)[O-]` (racemic) [A23], the ED50 in experiment [1] was found to be 40 mg/kg. Further, the 50% inhibitory concentration (IC50) in experiment [2] (setting [4]) is 66 nM; in experiment [3], 230 nM.
As to `CCC(C)CCNC(=O)C(CCC(=O)O)NC(=O)c1cccc(Cl)c1` (centres unmarked) [A6], the ED50 in experiment [1] was found to be 55 mg/kg. In experiment [2] (setting [4]), the IC50 is 4500 nM.
In the case of `CCC(C)(CC)CCNC(=O)C(CC(=O)O)NC(=O)c1cccc(Cl)c1` (racemic) [A24], in experiment [1], the ED50 came out at 42 mg/kg. Also, the figures for the IC50 in experiment [2] (setting [4]) and in experiment [3] were 230 nM and 290 nM, respectively.
For `CCCCCCCNC(=O)C(CCC(=O)O)NC(=O)c1cccc(Cl)c1` (racemic) [A8], in experiment [1], the ED50 was more than 100 mg/kg. Further, the IC50 stood at 12000 nM in experiment [2] (setting [4]) and 39000 nM in experiment [3].
As to `O=C(O)CC[C@H](NC(=O)c1cccc(Cl)c1)C(=O)NC1CCCCCC1` [D6, reference compound], the IC50 in experiment [2] (setting [4]) was determined as 67000 nM.
Regarding `CCC(C)(CCNC(=O)C(CCC(=O)O)NC(=O)c1cccc(Cl)c1)C(C)C` (centres unmarked) [A16], the ED50 in experiment [1] worked out at 37 mg/kg. Also, the IC50 in experiment [2] (setting [4]) is 290 nM.
For `CCCCCNC(=O)C(CCC(=O)O)NC(=O)c1cccc(C)c1` (racemic) [A17], the ED50 in experiment [1] is 65 mg/kg. The IC50 in experiment [2] (setting [4]) came to 4500 nM; in experiment [3], 17000 nM.
Take `CCC(C)(CC)CCNC(=O)C(CC(=O)O)NC(=O)c1cccc(C)c1` (racemic) [A26]: the ED50 in experiment [1] stood at 52 mg/kg. For the same compound, the IC50 in experiment [2] (setting [4]) was found to be 840 nM.
For `CCC(CC)CCNC(=O)C(CCC(=O)O)NC(=O)c1cccc(Cl)c1` (racemic) [A11] the same measures were 53 mg/kg and 650 nM.
Taken in the same sequence, the figures for `CCC(C)(CC)CCNC(=O)[C@@H](CCC(=O)O)NC(=O)c1cccc(Cl)c1` [D3] were 30 mg/kg and 58 nM.
Consider `CC(C)(C)CCCNC(=O)[C@@H](CCC(=O)O)NC(=O)c1cccc(Cl)c1` [D2], for which the ED50 in experiment [1] is 34 mg/kg. Moreover, the IC50 in experiment [2] (setting [4]) was determined as 34 nM; in experiment [3], 59 nM.
For `O=C(O)CCC(NC(=O)c1cccc(Cl)c1)C(=O)NC1CCCCCC1` (racemic) [A12] the same measures were 58 mg/kg, 3800 nM and 6400 nM.
Regarding `CCC(C)(CC)CCNC(=O)C(CCC(=O)O)NC(=O)c1cc(C)cc(C)c1` (racemic) [A22], the ED50 in experiment [1] is 41 mg/kg. Besides, the IC50 in experiment [2] (setting [4]) is 2900 nM; in experiment [3] it was 2400 nM.
For `CCCCCCNC(=O)C(CCC(=O)O)NC(=O)c1cccc(Cl)c1` (racemic) [A3] the same measures were 54 mg/kg, 4800 nM and 7500 nM.
As to `O=C(O)CC[C@@H](NC(=O)c1cccc(Cl)c1)C(=O)NC1CCCCCC1` [D4], in experiment [1], the ED50 is 64 mg/kg. The IC50 in experiment [2] (setting [4]) came out at 2300 nM.

The values are drawn from patent EP0498830B1, “GLUTAMIC AND ASPARTIC ACID DERIVATIVES WITH ANTIGASTRIN ACTIVITY AND A METHOD FOR THEIR PREPARATION” (ROTTA RESEARCH LABORATORIUM S.P.A., priority 1989, dated 1991).
